The test system of assay [1] is IP10, IFNγ, IL-6, IL-8 and TNF-α. As to the kind of experiment: Poly(I:C) (TLR3) stimulated cytokines and chemokines in human whole blood. The settings on record: poly(I:C) 100 μg/mL, 24 hours. Type of assay: cell-based. The protocol:
Human whole blood assays were performed as described above with the exceptions listed below. […] Compounds were serially diluted in 100% DMSO (Sigma-Aldrich, D2650) followed by a 25× dilution into DMEM/10% FBS (Gibco, 11965/26140). After the one-hour incubation with the compounds or vehicle, 20 μL of poly(I:C) (InvivoGen, HMW, tlrl-pic), in DPBS (Gibco, 14190-136) was added for a final concentration of 100 μg/mL to each well except for the no stimulus wells. After twenty-four hours of incubation with poly(I:C), plasma was harvested and assayed for IP10, IFNγ, IL-6, IL-8 and TNF-α using Meso Scale Discovery Technology V-plex human cytokine kits according to the kit protocol.

Assay [2] deals with p-HSP27 (phosphorylated heat shock protein 27). As to the kind of experiment: Ex vivo LPS-stimulated p-HSP27 in blood of dosed healthy subjects, PK/PD inhibitory Emax model. The arrangement: species or system human. The procedure: Blood samples of 10 mL were collected for PD analysis. For the SAD cohorts, blood was collected before dosing and 1, 12, and 24 hours after dosing. For the MAD cohorts, on day 1 blood was collected before the morning dose and 4 and 12 hours after the morning dose (prior to the evening dose); on day 7, blood was collected before the morning dose and 4 and 12 hours after the morning dose.
Additional details of the assays for analyzing p-HSP27 and cytokines are included in the Supplementary Information.
Pharmacodynamics. PD data analysis was conducted using Microsoft Excel 2010 (Microsoft, Redmond, WA), Meso Scale Discovery Workbench® analysis software (Rockville, MD), and Phoenix WinNonlin, version 8.2.
Sample Preparation for p-HSP27 Analysis. […] Treatment groups consisted of 3 tubes for group ‘A’, 2 tubes for group ‘B’, and 1 tube for group ‘C’.
Dimethyl sulfoxide (DMSO) was added to all tubes in groups ‘A’ and ‘C’ to a final concentration of 0.1% (10 μL per mL of a 10% DMSO solution in Dulbecco's Modified Eagle Medium (DMEM) containing 10% fetal bovine serum (FBS) and 1% penicillin/streptomycin/glutamine). Samples were then rocked gently at room temperature. […] Samples were then rocked gently at room temperature for a minimum of 1 hour.
Samples in groups ‘A’ and ‘B’ were stimulated with lipopolysaccharide at a final concentration of 100 ng/mL for 22 minutes at room temperature. A stock solution of lipopolysaccharide at 1 mg/mL in DMEM containing 10% FBS and 1% penicillin/streptomycin was diluted to 10 μg/mL in DMEM containing 10% FBS and 1% penicillin/streptomycin, and 10 μL of this working solution was added per mL of blood. Samples were gently rocked at room temperature for 11 minutes, then placed upright for 11 minutes prior to peripheral blood mononuclear cells (PBMC) isolation.
Ten μL of DMEM containing 10% FBS only was added per mL of blood in group ‘C’ for all patient samples (unstimulated samples). Samples were gently rocked at room temperature for 11 minutes, then placed upright for 11 minutes prior to PBMC isolation.
Upon completion of treatment (lipopolysaccharide stimulated or unstimulated) for each sample, PBMCs were isolated from each human whole blood aliquot in all treatment groups. One mL of blood from each sample was gently layered onto 0.75 mL of Histopaque-1077 in a 2-mL microcentrifuge tube. Histopaque-1077 was maintained at room temperature. The samples were centrifuged for 2 minutes at 16,000×g in an Eppendorf microcentrifuge. The interface and upper layers were removed and added to tubes containing 1 mL cold Dulbecco's phosphate-buffered saline (DPBS). These samples were then centrifuged for 30 seconds at 16,000×g in an Eppendorf microcentrifuge to pellet the cells. The buffer supernatant was removed by aspiration and the pellets were re-suspended in 1 mL of cold DPBS. The pellets from each sample were then re-pelleted, as described above. […]
Analysis of p-HSP27 (Ser78) Levels Using Luminex Technology. The lysates were analyzed for HSP27 phosphorylation with a custom Milliplex® MAP Human Phospho-HSP27(Ser78) Cell Signaling Magnetic Bead Kit from Millipore Sigma (Burlington, MA) using the kit-prescribed immunoassay protocol for a 96-well solid plate and hand-held magnetic separation block. […]

Assay [3] relates to IL-6. Kind of assay: LPS stimulated IL-6 production in human whole blood. It is filed as cell-based. The procedure: Compounds were serially diluted in 100% DMSO (Sigma-Aldrich, D2650) followed by a 50× dilution into DMEM/10% FBS (Gibco, 11965/26140). Vehicle consisted of DMSO at a final assay concentration of 0.1%. Pin tools (V&P Scientific, Inc., VP246) were placed in the wells and the plate was placed at 37° C. with 5% CO2, with gently shaking for five minutes, then pin tools were removed and saved. […] Pin tools were placed in the wells in the same orientation as the previous step and gently shook for five minutes at 37° C. with 5% CO2, then removed. […] The plasma was harvested and assayed for TNF-α, IL-1β, and IL-6 using Meso Scale Discovery Technology V-plex human cytokine kits according to the kit protocol. The kit plates were read using an MSD Sector S 6000 instrument. Calculations to establish cytokine calibration curves and to determine analyte concentrations in the samples were carried out using the MSD DISCOVERY WORKBENCH® analysis software.

Where two headings read alike, the source gives them in different places.

For the compound `Cc1cnc(-c2ccnc(C(C)(C)O)n2)cc1-n1c(C)cc(OCc2ncc(F)cc2F)c(Cl)c1=O` (single isomer, unassigned) [ATI-450, 3-chloro-4-((3,5-difluoropyridin-2-yl)methoxy)-2′-(2-(2-hydroxypropan-2-yl)pyrimidin-4-yl)-5′,6-dimethyl-2H-[1,4′-bipyridin]-2-one], the IC50 in assay [1] was 10 to 100 nM; in assay [2] (Homo sapiens, inhibitory Emax model, combined SAD and MAD data, read-out: IC50, plasma concentration at half maximal inhibition), 0.0092 µg/mL; in assay [3] (Human Whole Blood, LPS, 100 ng/mL, 4 or 24 hr, read-out: IC50, IL-6), 135 ± 97 nM; in assay [3] (human whole blood, LPS 100 ng/mL, read-out: IC50, LPS-stimulated IL-6) it was 10 to 100 nM. For the same compound, the “Cmax (Multiple of IC80)” value in assay [2] (50 mg BID, day 7) is reported as 6.0x. In addition, in assay [2] (50 mg BID, day 7), the “Ctrough (Multiple of IC80)” value was found to be 2.4x. Besides, the IC80 in assay [2] (Homo sapiens, calculated from IC50, combined SAD and MAD data, read-out: IC80, plasma concentration at 80% of maximal inhibition) was 0.0367 µg/mL. Besides, the “IC80, plasma concentration at 80% of maximal inhibition” value in assay [2] (calculated from IC50, combined SAD and MAD data) was 0.0367 µg/mL.

Source of the values: US11844801B2, “Oral compositions of MK2 pathway inhibitor for treatment of immune conditions” (priority 2020, dated 2023).
